Data from ChEMBL document CHEMBL3867464, “Novel substituted aminothiazoles as potent and selective anti-hepatocellular carcinoma agents” (Bioorg Med Chem Lett, 2016).
≈ marks a conversion by molar mass, not a printed value.

Assays:
[1] = Cytotoxicity against human HuH7 cells assessed as decrease in cell viability after 72 hrs by MTT assay; assay type: functional; conditions: Huh-7, 72 h
[2] = Cytotoxicity against human THLE2 cells assessed as decrease in cell viability after 72 hrs by MTT assay; assay type: toxicity, cell-based; conditions: thle-2, 72 h
[3] = Cytotoxicity against human PH5CH cells assessed as decrease in cell viability after 72 hrs by MTT assay; assay type: toxicity, cell-based
Huh-7 [4] = experiment: Selectivity index, ratio of CC50 for human THLE2 cells to CC50 for human HuH7 cells; assay type: functional
Huh-7 [5] = experiment: Selectivity index, ratio of CC50 for human PH5CH cells to CC50 for human HuH7 cells; assay type: functional
[6] = Solubility of the compound in methylene chloride solution; assay type: physicochemical
[7] = Solubility of the compound in ethyl acetate solution; assay type: physicochemical
[8] = Solubility of the compound in ethanol solution; assay type: physicochemical
[9] = Drug level in human liver microsomes treated with IHVR-04042 assessed as CYP450-mediated compound formation measured at 60 mins; assay type: ADME; conditions: 1 h
[10] = Drug level in mouse liver microsomes treated with IHVR-04042 assessed as CYP450-mediated compound formation measured at 60 mins; assay type: ADME; conditions: 1 h
[11] = Stability in human liver microsomes assessed as parent compound remaining measured at 60 mins; assay type: ADME; conditions: read-out: Stability
[12] = Aqueous solubility of the compound at pH 4; assay type: physicochemical; conditions: buffer
[13] = Aqueous solubility of the compound at pH 7.4; assay type: physicochemical; conditions: buffer
[14] = Stability in mouse liver microsomes assessed as parent compound remaining measured at 60 mins; assay type: ADME; conditions: read-out: Stability
[15] = Tmax in CD-1 mouse at 2 mg/kg, iv; assay type: ADME, organism-based; conditions: in vivo
[16] = Tmax in CD-1 mouse at 10 mg/kg, po; assay type: ADME, organism-based; conditions: in vivo
[17] = Cmax in CD-1 mouse at 10 mg/kg, po; assay type: ADME, organism-based; parameters: dose 10 mg/kg, route oral; conditions: in vivo
[18] = Half life in CD-1 mouse at 2 mg/kg, iv; assay type: ADME, organism-based; conditions: in vivo
[19] = Half life in CD-1 mouse at 10 mg/kg, po; assay type: ADME, organism-based; conditions: in vivo
[20] = Volume of distribution at steady state in CD-1 mouse at 2 mg/kg, iv; assay type: ADME, organism-based; conditions: in vivo, read-out: Vdss
[21] = AUClast in CD-1 mouse at 2 mg/kg, iv; assay type: ADME, organism-based; conditions: in vivo
[22] = AUClast in CD-1 mouse at 10 mg/kg, po; assay type: ADME, organism-based; conditions: in vivo
[23] = Oral bioavailability in CD-1 mouse at 10 mg/kg; assay type: ADME, organism-based; conditions: in vivo
[24] = Drug metabolism in human liver microsomes assessed as CYP450-mediated 4-(pyridin-2-yl)-2-(pyrimidin-2-ylamino)thiazole-5-carboxylic acid formation measured at 60 mins; assay type: ADME; conditions: 1 h
[25] = Drug metabolism in mouse liver microsomes assessed as CYP450-mediated 4-(pyridin-2-yl)-2-(pyrimidin-2-ylamino)thiazole-5-carboxylic acid formation measured at 60 mins; assay type: ADME; conditions: 1 h
[26] = Drug level in human liver microsomes treated with isopropyl 4-(pyrazin-2-yl)-2-(pyrimidin-2-ylamino)thiazole-5-carboxylate assessed as CYP450-mediated compound formation measured at 60 mins; assay type: ADME; conditions: 1 h
[27] = Drug level in mouse liver microsomes treated with isopropyl 4-(pyrazin-2-yl)-2-(pyrimidin-2-ylamino)thiazole-5-carboxylate assessed as CYP450-mediated compound formation measured at 60 mins; assay type: ADME; conditions: 1 h
[28] = Tmax in CD-1 mouse at 1 mg/kg, iv; assay type: ADME, organism-based; conditions: in vivo
[29] = Tmax in CD-1 mouse at 2.5 mg/kg, po; assay type: ADME, organism-based; conditions: in vivo
[30] = Cmax in CD-1 mouse at 2.5 mg/kg, po; assay type: ADME, organism-based; parameters: dose 2.5 mg/kg, route oral; conditions: in vivo
[31] = Half life in CD-1 mouse at 1 mg/kg, iv; assay type: ADME, organism-based; conditions: in vivo
[32] = Volume of distribution at steady state in CD-1 mouse at 1 mg/kg, iv; assay type: ADME, organism-based; conditions: in vivo, read-out: Vdss
[33] = AUClast in CD-1 mouse at 1 mg/kg, iv; assay type: ADME, organism-based; conditions: in vivo
[34] = AUClast in CD-1 mouse at 2.5 mg/kg, po; assay type: ADME, organism-based; conditions: in vivo
[35] = Oral bioavailability in CD-1 mouse at 2.5 mg/kg; assay type: ADME, organism-based; conditions: in vivo
[36] = Drug uptake in CD-1 mouse liver at 2.5 mg/kg, po; assay type: ADME, organism-based; conditions: in vivo
[37] = Cytotoxicity against human hepatic cancer cells derived from HCC patient assessed as change in cell proliferation by measuring response rate at 1 uM after 48 hrs by Ki-67 immunostaining based assay; assay type: functional, Cancer cell lines
[38] = Drug metabolism in human liver microsomes assessed as CYP450-mediated 4-(pyrazin-2-yl)-2-(pyrimidin-2-ylamino)thiazole-5-carboxylic acid formation measured at 60 mins; assay type: ADME; conditions: 1 h
[39] = Drug metabolism in mouse liver microsomes assessed as CYP450-mediated 4-(pyrazin-2-yl)-2-(pyrimidin-2-ylamino)thiazole-5-carboxylic acid formation measured at 60 mins; assay type: ADME; conditions: 1 h

Structure (SMILES) | CC50 [1] | CC50 [2] | CC50 [3] | Selectivity Index (Huh-7 [4]) | Selectivity Index (Huh-7 [5]) | also measured
CCOC(=O)c1sc(Nc2ncccn2)nc1-c1ncccc1C | 46100 nM | 49.1 µM | 50 µM | 1.07 |  | 
CC(C)OC(=O)c1sc(Nc2ncccn2)nc1-c1ncccn1 | 1620 nM | 50 µM | 50 µM | 30.96 | 30.96 | 
CC(C)OC(=O)c1sc(N(COP(=O)(OC(C)(C)C)OC(C)(C)C)c2ncccn2)nc1-c1cnccn1 | 980 nM | 50 µM | 50 µM | 51.28 | 51.28 | solubility [6]: Soluble; solubility [7]: Soluble; solubility [8]: Soluble
CC(C)OC(=O)c1sc(Nc2ncccn2)nc1-c1ccccn1 | 410 nM | 50 µM | 49.8 µM | 123.39 |  | 
CCOC(=O)Cc1sc(Nc2ncccn2)nc1-c1ccccn1 | 1390 nM | 50 µM | 50 µM | 35.94 | 35.94 | 
O=C(O)c1sc(Nc2ncccn2)nc1-c1ccccn1 |  |  |  |  |  | Drug metabolism [9]: Metabolite_Detected; Drug metabolism [10]: Metabolite_Detected
c1ccc(-c2csc(NCc3ncccn3)n2)nc1 | 40500 nM | 49.6 µM | 49.8 µM | 1.22 |  | 
CCOC(=O)CCc1sc(Nc2ncccn2)nc1-c1ccccn1 | 2050 nM | 10.5 µM | 10.1 µM | 5.1 | 4.93 | 
CCOC(=O)c1sc(Nc2ncccn2)nc1-c1ccccn1 | 180 nM |  |  | 253.954 | 214.328 | remaining at 1 h [11]: 63.1%; solubility [12]: 112.84 µM (≈ 36.9 µg/mL); solubility [13]: 23.84 µM (≈ 7.8 µg/mL); remaining at 1 h [14]: 43.3%; Tmax [15]: 0 h; Tmax [16]: 34.8 min; Cmax [17]: 94.1 ng/mL; half-life [18]: 14.4 min; half-life [19]: 115 min; Vd [20]: 1.45 L/kg; AUClast [21]: 224 ng·mL·h; AUClast [22]: 19.5 ng·mL·h; bioavailability [23]: 10%; Drug metabolism [24]: Metabolite_Detected; Drug metabolism [25]: Metabolite_Detected
CC(C)OC(=O)OCN(c1ncccn1)c1nc(-c2cnccn2)c(C(=O)OC(C)C)s1 | 95 nM | 50 µM | 50 µM | 528.17 | 528.17 | solubility [6]: Soluble; solubility [7]: Soluble; solubility [8]: Soluble
CCOC(=O)c1sc(Nc2ncccn2)nc1-c1cnccn1 | 590 nM | 47.1 µM | 50 µM | 80.06 | 85.03 | 
CC(C)OC(=O)c1sc(Nc2ncccn2)nc1-c1ccncn1 | 1210 nM | 46.2 µM | 50 µM | 38.11 | 41.24 | 
CCOC(=O)c1sc(Nc2ncccn2)nc1-c1cc(C(F)(F)F)ccn1 | 170 nM | 15 µM | 9.34 µM | 90.32 | 56.24 | 
CCOCc1sc(Nc2ncccn2)nc1-c1ccccn1 | 3190 nM | 41.8 µM | 39 µM | 13.08 | 12.23 | 
CCOC(=O)Cc1sc(NCc2ncccn2)nc1-c1ccccn1 | 49400 nM | 50 µM | 50 µM | 1.01 | 1.01 | 
CCOCc1sc(NCc2ncccn2)nc1-c1ccccn1 | 44800 nM | 49.6 µM | 50 µM | 1.11 |  | 
CCOC(=O)c1sc(NCc2ncccn2)nc1-c1ccccn1 | 50000 nM |  |  | 1 | 1 | 
O=C(O)c1sc(Nc2ncccn2)nc1-c1cnccn1 |  |  |  |  |  | Drug metabolism [26]: Metabolite_Detected; Drug metabolism [27]: Metabolite_Detected
CC(C)OC(=O)c1sc(N(COP(=O)(OC(C)(C)C)OC(C)(C)C)c2ncccn2)nc1-c1ccccn1 | 380 nM | 42.2 µM | 50 µM | 111.42 | 131.93 | solubility [6]: Soluble; solubility [7]: Soluble; solubility [8]: Soluble
O=C(O)CCc1sc(Nc2ncccn2)nc1-c1ccccn1 | 14100 nM | 26.4 µM | 17.7 µM | 1.87 | 1.25 | 
COCCOCN(c1ncccn1)c1nc(-c2cnccn2)c(C(=O)OC(C)C)s1 | 50000 nM | 50 µM | 50 µM |  | 1 | solubility [6]: Soluble; solubility [7]: Soluble; solubility [8]: Soluble
CCOC(=O)c1sc(Nc2ncccn2)nc1-c1ccncn1 | 1600 nM | 40.8 µM | 40 µM | 25.46 | 24.97 | 
CC(C)OC(=O)c1sc(Nc2ncccn2)nc1-c1cnccn1 | 110 nM | 50 µM | 50 µM | 471.7 | 471.7 | remaining at 1 h [11]: 70.9%; solubility [12]: 6.35 µM (≈ 2.17 µg/mL); solubility [13]: 5.2 µM (≈ 1.78 µg/mL); remaining at 1 h [14]: 36.2%; Tmax [28]: 0 h; Tmax [29]: 26.4 min; Cmax [30]: 48.7 ng/mL; half-life [31]: 26.4 min; Vd [32]: 3.49 L/kg; AUClast [33]: 142 ng·mL·h; AUClast [34]: 21.6 ng·mL·h; bioavailability [35]: 15.2%; Drug uptake [36]: 33 ng/g; Activity [37]: 38%; Drug metabolism [38]: Metabolite_Detected; Drug metabolism [39]: Metabolite_Detected
c1ccc(-c2csc(Nc3ncccn3)n2)nc1 | 1100 nM |  |  | 35.45 | 40.294 | 
